“Also recorded” adds a separate entry of the source.

Assay [1] addresses T1, trypsin from bovine pancreas (Bos taurus, UniProt P00760).
T1 construct: purchased Sigma; host or cells: bovine pancreas
T1 sequence (P00760 24-246): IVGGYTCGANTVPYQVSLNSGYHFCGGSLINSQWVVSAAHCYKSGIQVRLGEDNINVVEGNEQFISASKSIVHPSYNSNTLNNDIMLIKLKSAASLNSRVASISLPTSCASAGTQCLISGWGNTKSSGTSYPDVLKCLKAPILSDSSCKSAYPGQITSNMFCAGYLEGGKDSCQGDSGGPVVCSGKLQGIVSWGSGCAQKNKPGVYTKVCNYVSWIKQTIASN
Briefly: trypsin autolysis followed by fluorescence spectroscopy (ratio R versus time, FIG. 2). Format: biochemical. The conditions noted are these: 0.1 M TRIS buffer pH 7.5, compared with water. An excerpt: (§1) The process of serine protease (e.g., trypsin) autolysis can be followed by using fluorescence spectroscopy. […] Consequently, the autolysis of trypsin and subsequent unfolding is accompanied by spectral changes that can be detected by obtaining fluorescence spectra at various time points after preparing a fresh solution of trypsin.
(§2) The iso-emissive points (fluorescence intensity independent of time) at 305 nm and 360 nm are typical of a situation where one fluorescent component (native protein) is the source of the other fluorescent component(s) (denatured protein and cleaved fragments). Applicants quantified the change in the trypsin spectrum by taking a ratio, R, of the area between 320 nm and 330 nm and the area between 380 nm and 400 nm: [formula]
(§3) The numerator represents the relative amount of native protein in the sample and the denominator represents relative amount of denatured protein and cleaved fragments. R therefore is a measure of how far the autolysis process has progressed.
(§4) Protocol—Fresh solutions of trypsin (2.5 mg/ml) were prepared by mixing the appropriate amount of solid trypsin from bovine pancreas (Sigma) with appropriate amounts of buffer solution (1M, pH 7.5; VWR), water, and protein stabilizing compound (pyrollidone carboxylic acid—Sigma Ultrapure; trimethylamine N-oxide—Fluka Purum; glycerin—J.T. Baker; 1-Propanaminium, 2,3-dihydroxy-N,N,N-trimethyl-, chloride—synthesized and purified in house), and/or protein destabilizing compound (urea—J.T. Baker Ultrapure Bioreagent); sodium dodecyl sulfate—ICN Ultrapure). All chemicals were used as supplied. Within minutes of dissolving the solid trypsin the solution was transferred into a quartz fluorescence cuvette and placed inside a Perkin Elmer LS 50 B fluorescence spectrometer. Fluorescence spectra were subsequently measured, either every 5 minutes or every 10 minutes. The excitation wavelength was 280 nm.
A seen in FIG. 2, applicants plotted trypsin autolysis as followed by fluorescence spectroscopy in various media with 0.1 M TRIS buffer pH 7.5. These media include: 0.5 M PCA, i.e., pyrollidone carboxylic acid (closed triangles); 1 M TMAO (closed diamonds); 1 M glycerol (closed circles); 1M 1-propanaminium, 2,3-dihydroxy-N,N,N-trimethyl-,chloride (crosses); water (closed squares); 1 M urea (open triangles); and 0.5 mM SDS, i.e., sodium dodecyl sulphate (open circles).
The ability of various compounds or combinations of compounds to increase or depress the rate of trypsin autolysis can be compared by plotting R as a function of time as is shown, for example, in FIG. 2.

Assay [2] addresses T1, trypsin from bovine pancreas. Briefly: trypsin autolysis followed by fluorescence spectroscopy in the presence of the denaturant SDS (FIG. 3). In kind it is biochemical.
Description: as §1, §2, §3, §4
For reference purposes, also shown are autolysis traces in the presence of 0.5 mM SDS without any protein stabilizer (open squares) and without any SDS or protein stabilizer (closed squares).

Setting [3] is: 1.0 M stabilizer plus 0.5 mM SDS.

For `C[N+](C)(C)CC(O)CO.[Cl-]` (stereo not drawn) [1-Propanaminium, 2,3-dihydroxy-N,N,N-trimethyl-, chloride], in assay [1] ([…] compound), the “rate of trypsin autolysis (R as a function of time)” value (shortened to “rate … (R as a function of time)”) was “exceed that of both glycerol and TMAO”.

Turning to `O=C1CC[C@@H](C(=O)O)N1` [PCA, pyrollidone carboxylic acid], in assay [1] (0.5 M compound), the “rate … (R as a function of time)” value is “virtual absence of autolysis; also recorded: by far the strongest ability of any of the compounds tested to stabilize trypsin”. The “rate of trypsin autolysis in the presence of SDS” value (“rate … of SDS” below) in assay [2] (0.5 M stabilizer plus 0.5 mM SDS) is “able to “protect” proteins against a denaturing force; also recorded: still slower than in the absence of both SDS and a protein stabilizer”.

As for `CCCCCCCCCCCCOS(=O)(=O)[O-].[Na+]` [SDS, sodium dodecyl sulfate], in assay [1] (0.5 mM compound), the “rate … (R as a function of time)” value was “significant increase in the rate of trypsin hydrolysis”.

Consider `C[N+](C)(C)[O-]` [TMAO, trimethylamine N-oxide], for which, in assay [1] ([…] compound), the “rate … (R as a function of time)” value is given as “exceeds glycerol in its ability to stabilize trypsin against autolysis”. The “rate … of SDS” value in assay [2] (setting [3]) was “able to “protect” proteins against a denaturing force; also recorded: still slower than in the absence of both SDS and a protein stabilizer”.

As to `OCC(O)CO` [glycerol], the “rate … (R as a function of time)” value in assay [1] ([…] compound) is on record as “significantly reduces the rate of trypsin autolysis”. The “rate … of SDS” value in assay [2] (setting [3]) is “able to “protect” proteins against a denaturing force”.

On to `NC(N)=O` [urea], for which the “rate … (R as a function of time)” value in assay [1] ([…] compound) is on record as “significant increase in the rate of trypsin hydrolysis”.

The record behind these values is US20070092925A1, “Method of treating skin by delivering specific protein stabilizers/protectors to skin proteins and methods of selecting said stabilizers” (Conopco, Inc., d/b/a UNILEVER, priority 2005, published 2007).
